Results as given in publication PMC4551797 (PLoS ONE, 2015).
Like-named read-outs stand apart in the source and are kept apart here.

Columns and labels:
DIO C57BL/6 mice [1] = test: Oral glucose tolerance test in diet-induced obese mice, acute or after 2-week dosing; type: in vivo, mouse; details: 2 g/kg glucose
Procedure: For measurement of glucose only, overnight-fasted C57BL/6 mice in a normal light cycle were orally dosed with vehicle or compound, followed by an oral bolus of 3 g/kg glucose at 15 minutes post compound. At 0, 20, 40, 60, and 120 minutes post glucose dose, blood glucose was assessed via glucometers. Resulting raw data was used to generate AUCs. For measurement of hormones and glucose, overnight-fasted C57BL/6 mice acclimated for two weeks to a reverse light cycle were orally dosed with vehicle or compound, followed by an oral bolus of 3 g/kg glucose at 15 minutes post compound. At 0, 2, 5, 10, 20, 40, and 60 minutes post glucose dose, blood glucose was assessed via glucometers, followed immediately by collection of plasma for active GLP-1 (Mesoscale Discovery), insulin (Mesoscale Discovery), and total PYY. […] At 0, 15, 30, 60, and 120 minutes post glucose dose, blood glucose was assessed via glucometers. […]
While compound 18 led to significant glucose lowering in an OGTT studies when dosed acutely, it remained unclear if the mechanism of TGR5-stimulated GLP-1 secretion desensitizes over time. […] For the chronic study, DIO mice were orally dosed with vehicle or 60 mg/kg compound 18 once a day for two weeks; body weights and food intake were measured during the treatment period. […]

DIO C57BL/6 mice [2] = test: Body weight, food intake and body composition in DIO mice over two weeks; type: in vivo, mouse; details: 60 mg/kg oral once a day
Procedure: Body composition of mice was determined using Quantitative Nuclear Magnetic Resonance analysis (ECHO MRI, 3–1 Composition Analyzer; Echo Medical Systems, Houston, TX). DIO mice were randomized by body weight and fat mass prior to administration of compounds. Changes in body weight, cumulative food intake, and fat and lean mass were recorded for up to a two week period.
While compound 18 led to significant glucose lowering in an OGTT studies when dosed acutely, it remained unclear if the mechanism of TGR5-stimulated GLP-1 secretion desensitizes over time. […] In order to determine if desensitization occurs, as well as explore the potential for changes in body weight by compound 18, we obtained DIO C57BL/6 mice and randomly assigned them into either an acute or chronic study. For the acute experiment, overnight-fasted DIO mice were dosed with vehicle or 60 mg/kg of compound 18 the next morning, and an OGTT was performed 30 minutes after compound dosing using 2 g/kg glucose. For the chronic study, DIO mice were orally dosed with vehicle or 60 mg/kg compound 18 once a day for two weeks; body weights and food intake were measured during the treatment period. After two weeks, mice were over-night fasted, dosed the following morning, and subjected to an OGTT 30 minutes after compound dosing.
Diet-induced obese (DIO) C57BL/6 mice were either dosed acutely or chronically for two weeks with vehicle (white circles, white bars) or compound 18 at 60 mg/kg (black triangles, black bars). An OGTT on over-night fasted DIO mice was performed after either a single dose (A, acute) or after two weeks of dosing (B, chronic), using 2 g/kg glucose dosed 30 minutes after compound dosing. Changes in body weights (C) and cumulative food intake (D) were recorded for the two week period. n = 8; mean +/- SEM. * P < 0.01.

C57BL/6 mice = test: Three-day study on GLP-1 and gallbladder filling (bile weight); type: in vivo, mouse
Procedure: C57BL/6 mice, Tgr5 KO mice, or their wild-type littermate controls were orally dosed with vehicle or compounds twice per day for 3 days, with overnight fasting performed on the evening of day 2. On the morning of day 3, animals were dosed orally with compounds and then euthanized by CO2 asphyxiation at 30 minutes after the fifth dose. Plasma was collected for analysis of GLP-1 (X-36) amide as mentioned above, followed immediately by incision into the abdominal cavity to remove and weigh bile from the gallbladder.
On the third day, compound was dosed in the morning followed 30 minutes later by measurement of bile filling (A) by use of a needle and syringe and GLP-1 (x-36) amide (B) by cardiac puncture.

STC-1 cells = test: GLP-1 secretion in STC-1 enteroendocrine cells; type: cell-based; details: Mus musculus
Procedure: HEK-293 cells were obtained from ATCC and a clonal HEK-293 line overexpressing mouse TGR5 was prepared. Both were maintained in Dulbecco’s modified Eagle’s medium (DMEM) containing 10% fetal bovine serum (FBS) and penicillin /streptomycin. Mouse STC-1 cells were obtained from ATCC under agreement with the Cold Spring Harbor Laboratories and maintained in DMEM containing 10% FBS and penicillin /streptomycin. NCI-H716 cells were obtained from ATCC and were maintained in RPMI-1640 with 10% FBS. NCI-H716 cells were cultured in 96 well plate coated with Matrigel (BD). After 72 hours, cAMP production stimulated with TGR5 agonists was measured using HTRF cAMP assay kit (CISBIO). The level of cAMP in suspensions of STC-1 cells stimulated with increasing concentrations of TGR5 agonists was also determined. […] The production of GLP-1 was determined using a GLP-1 Assay (7–36) amide kit (Mesoscale Discovery) following the manufacturer’s instructions. […]
Compound 18 is a novel small molecule agonist of TGR5 developed by Eli Lilly and Company (MW = 508.62, Fig 2A). […] In order to determine potency of compound 18 for the mouse and human TGR5 receptor in cells with endogenous levels of receptor, we measured compound 18-stimulated cAMP production and GLP-1 secretion in both mouse (STC-1) and human (NCI-H716) enteroendocrine cell lines, that we have shown to express TGR5 natively (Fig 1). […]

[3] = 1, 3, 10, 30, 100 mg/kg oral BID 3 days, 30 min after last dose

SMILES: CC(=O)N1CCC(C(C)N(C(=O)COc2cccc3sc4nc(C)cn4c23)c2ccc(F)cc2)CC1 (stereo not drawn) [compound 18]
- reduction in the glucose excursion (OGTT) (DIO C57BL/6 mice [1]; acute, single 60 mg/kg oral dose): 33 ± 5%
- reduction in the glucose excursion (OGTT) (DIO C57BL/6 mice [1]; chronic, 60 mg/kg oral once a day for two weeks): 27 ± 6%
- food intake (DIO C57BL/6 mice [2]): no change in food intake
- reduction in body weight gain versus vehicle (DIO C57BL/6 mice [2]): 1.4 g
- lean mass (DIO C57BL/6 mice [2]; P = 0.995): no difference in lean mass
- gain in fat mass (DIO C57BL/6 mice [2]; p = 0.067): trend towards reduced gain in fat mass
- bile weight (gallbladder filling) (C57BL/6 mice; [3]): clear dose dependent increase in bile weight
- plasma GLP-1 levels (C57BL/6 mice; [3]): elevated GLP-1 levels
- doses with significant effects on GLP-1 secretion (C57BL/6 mice; oral BID 3 days): ≥ 30 mg/kg
- doses with significant effects on bile weight (C57BL/6 mice; oral BID 3 days): ≥ 3 mg/kg
- EC50 (STC-1 cells; read-out: EC50, GLP-1 secretion): 307 nM
- EC50 (STC-1 cells; unit inferred, x-axis in nM, read-out: EC50 STC-1 (Fig 2D inset, GLP-1 secretion)): 307 nM
